For 10 compounds, EC50 results are on record in patent publication US7795257B2, “Organic compounds” (Novartis AG, priority 2005, dated 2010).

Structures can show the parent of a compound that is named as a salt.

The assay deals with T1, recombinant GST-GK (Homo sapiens, UniProt P35557).
T1 sequence (P35557 1-465): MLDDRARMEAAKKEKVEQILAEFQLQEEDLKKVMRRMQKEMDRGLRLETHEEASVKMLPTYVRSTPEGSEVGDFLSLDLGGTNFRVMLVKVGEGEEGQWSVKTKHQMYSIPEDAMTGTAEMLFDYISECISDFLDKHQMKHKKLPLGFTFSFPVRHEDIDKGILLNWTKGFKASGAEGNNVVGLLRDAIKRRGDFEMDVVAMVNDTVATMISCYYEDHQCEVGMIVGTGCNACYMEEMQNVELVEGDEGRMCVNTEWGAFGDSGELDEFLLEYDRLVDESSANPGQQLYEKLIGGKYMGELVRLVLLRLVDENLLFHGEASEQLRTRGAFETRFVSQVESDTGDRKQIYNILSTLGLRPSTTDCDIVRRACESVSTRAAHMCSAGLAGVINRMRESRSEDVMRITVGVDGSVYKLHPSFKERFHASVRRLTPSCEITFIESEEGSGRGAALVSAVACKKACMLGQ
As to the kind of experiment: primary enzyme assay: glucokinase activation in vitro (thio-NADH coupled assay). Format: biochemical. The settings on record: concentration of compound that produces a 50% increase in the activity of GK vs DMSO control; 10 mM glucose, 25° C. The text has this:
For example, the glucokinase activation in vitro may be determined by measuring the activation of recombinant GST-GK by a compound of the present invention in the absence or the presence of GKRP, a 68,000 Da protein inhibitor of GK. In these assays, formation of glucose-6-phosphate is coupled directly to the formation of thio-NADH. GST-GK catalyzes the reaction of glucose and Mg-ATP to produce glucose-6-phosphate and ADP. Glucose-6-phosphate dehydrogenase (G6PDH) reduces thionicotinamide (thio-NAD) to thio-NADH. The assay measures the formation of thio-NADH at […].
The basic GK assay components are as follows: 25 mM HEPES (pH 7.1), 25 mM KCl, 2.5 mM MgCl2, 1 mM ATP (Sigma A-5394), 1 mM DTT, 1 mM thio-NAD (Sigma T-7375), 80 units/mL G6PDH (Sigma G-5885), 10 mM glucose and 110 nM GST-GK. For assessing reversal of GK inhibition by GKRP, 20 μM Fructose-6-phosphate (F-6-P) and 370 nM recombinant GKRP are added to these assay components. Fructose-1-phosphate (F-1-P) at 1 μM is used as a control in the GK/GKRP assay. F-1-P reverses inhibition of GST-GK by GKRP.
The assay is done in standard, 96-well, round-bottom plates (Corning) and the total assay volume is 25 μL. Test compounds are serially diluted into 100% DMSO and 0.5 μL of diluted compound in 100% DMSO is added to the assay plate. Assay reagents (24.5 μL) are added using a Zymark robotic platform. Buffer, containing HEPES, MgCl2, KCl, thio-NAD, G6PDH, glucose and GST-GK, are added (5 μL) using the Zymark 8-channel hand pipet. For the GK/GKRP assay, GKRP and F-6-P are also included. The reaction is then initiated by adding 19.5 μL of buffer containing HEPES, MgCl2, KCl, DTT and ATP using the Zymark Reagent Addition Station/Reagent Addition Module. The plates are read kinetically over 10 min at 25° C. using a SpectraMax Plus microplate spectrophotometer (Molecular Devices, Sunnyvale, Calif.) to monitor the increase in optical density at 405 nm. The GK activity in wells containing test compounds is compared with activity in DMSO control wells. The concentration of compound that produces a 50% increase in the activity of GK is calculated and expressed as EC50.
`CN1CCN(S(=O)(=O)c2ccc(C(CC3CCCC3)C(=O)Nc3nc4ccc(Br)nc4s3)cc2)CC1` (stereo not shown) [Example 4-22, N-(5-Bromo-thiazolo[5,4-b]pyridin-2-yl)-3-cyclopentyl-2-[4-(4-methyl-piperazine-1-sulfonyl)-phenyl]-propionamide]: the EC50 was found to be 390 nM.

Turning to `COCCN(C)C(=O)c1ccc2nc(NC(=O)[C@H](CC3CCCC3)c3ccc(S(=O)(=O)N4CCN(C)CC4)cc3)sc2n1` [Example 4-52, 2-{(R)-3-Cyclopentyl-2-[4-(4-methyl-piperazine-1-sulfonyl)-phenyl]-propionylamino}-thiazolo[5,4-b]pyridine-5-carboxylic acid (2-methoxy-ethyl)-methyl-amide], the EC50 turned out to be 2100 nM.

For `COc1ccc2nc(NC(=O)C(CC3CCCC3)c3ccc(S(=O)(=O)N4CCC(C(=O)O)CC4)cc3)sc2n1` (stereo not shown) [Example 3, 1-{4-[2-Cyclopentyl-1-(5-methoxy-thiazolo[5,4-b]pyridin-2-ylcarbamoyl)-ethyl]-benzenesulfonyl}-piperidine-4-carboxylic acid], the EC50 amounted to 7100 nM.

Turning to `CN1CCN(S(=O)(=O)c2ccc(C(CC3CCCC3)C(=O)Nc3ccc(C(=O)O)cn3)cc2)CC1` (stereo not shown) [Example 4-23, 6-{3-Cyclopentyl-2-[4-(4-methyl-piperazine-1-sulfonyl)-phenyl]-propionylamino}-nicotinic acid], the EC50 came out at 1400 nM.

As for `COc1ccc2nc(NC(=O)C(CC3CCCC3)c3ccc(S(=O)(=O)N4CCNCC4C(=O)O)cc3)sc2n1` (stereo not shown) [Example 4-94, 1-{4-[2-Cyclopentyl-1-(5-methoxy-thiazolo[5,4-b]pyridin-2-ylcarbamoyl)-ethyl]-benzenesulfonyl}-piperazine-2-carboxylic acid], the EC50 is 9300 nM.

In the case of `CN1CCN(S(=O)(=O)c2ccc(C(CC3CCCC3)C(=O)Nc3nccc4ccccc34)cc2)CC1` (stereo not shown) [Example 1, 3-Cyclopentyl-N-isoquinolin-1-yl-2-[4-(4-methyl-piperazine-1-sulfonyl)-phenyl]-propionamide hydrochloride], the EC50 amounted to 50000 nM.

Consider `CN1CCN(S(=O)(=O)c2ccc(C(CC3CCCC3)C(=O)Nc3nccc4ccccc34)cc2)CC1` (stereo not shown) [Example 4-1, 3-Cyclopentyl-N-isoquinolin-1-yl-2-[4-(4-methyl-piperazine-1-sulfonyl)-phenyl]-propionamide], for which the EC50 was determined as 1100 nM.

As to `CN1CCN(S(=O)(=O)c2ccc(C(CC3CCCC3)C(=O)Nc3nc4ccc(-c5ccccc5)nc4s3)cc2)CC1` (stereo not shown) [Example 4-44, 3-Cyclopentyl-2-[4-(4-methyl-piperazine-1-sulfonyl)-phenyl]-N-(5-phenyl-thiazolo[5,4-b]pyridin-2-yl)-propionamide], the EC50 turned out to be 260 nM.

As for `CCN(CC)S(=O)(=O)c1ccc(C(CC2CCCC2)C(=O)Nc2nccs2)cc1` (stereo not shown) [Example 4-15, 3-Cyclopentyl-2-(4-diethylsulfamoyl-phenyl)-N-thiazol-2-yl-propionamide], the EC50 turned out to be 60 nM.

On to `CCN(CC)S(=O)(=O)c1ccc(C(CC2CCCC2)C(=O)Nc2nc3c(s2)CN(C(=O)OC(C)(C)C)CC3)cc1` (stereo not shown) [Example 4-8, 2-[3-Cyclopentyl-2-(4-diethylsulfamoyl-phenyl)-propionylamino]-6,7-dihydro-4H-thiazolo[5,4-c]pyridine-5-carboxylic acid tert-butyl ester], for which the EC50 is 95 nM.
